Laboratory results taken from the NIST ThermoML archive (doi:10.1016/j.fluid.2008.08.012).

Experiments:
[1] = refractive index (Na D-line) (dimensionless); conditions: 298.15 K; 101.33 kPa; Liquid; Standard Abbe refractometry
[2] = for mass density: 298.15 K, 101.33 kPa; for mass density / vapor or sublimation pressure: Liquid; for vapor or sublimation pressure: Ebulliometric method (Recirculating still); for surface tension liquid-gas: 303.15 K, Maximal bubble pressure
[3] = xn = mol fraction of the nth substance listed; conditions: 303.15 K, Maximal bubble pressure

COC(C)(C)C [2-methoxy-2-methylpropane]
Conditions	mass density [kg/m3]	refractive index	surface tension liquid-gas [mN/m]
[1]	–	1.36766	–
[2]	735.45	–	18.7

[2]
Conditions	vapor or sublimation pressure [kPa]
301.31 K	38.06
303.21 K	41.03
305.59 K	45.05
308.33 K	50.06
310.85 K	55.05
313.2 K	60.06
315.39 K	65.03
317.47 K	70.07
319.41 K	75.05
321.27 K	80.08
323.02 K	85.05
324.7 K	90.06
325.98 K	94
326.31 K	95.05
328.24 K	101.34

C1CCCCC1 [cyclohexane]
Conditions	mass density [kg/m3]	refractive index	surface tension liquid-gas [mN/m]
[1]	–	1.42508	–
[2]	773.84	–	24.1

Conditions	vapor or sublimation pressure [kPa]
[2], 351.37 K	94

COC(C)(C)C [2-methoxy-2-methylpropane] + CC(C)=O
[3]
Conditions	surface tension liquid-gas [mN/m]
x1 = 0.031	22.14
x1 = 0.074	21.76
x1 = 0.171	21.13
x1 = 0.272	20.59
x1 = 0.378	20.09
x1 = 0.484	19.75
x1 = 0.585	19.47
x1 = 0.681	19.22
x1 = 0.784	18.98
x1 = 0.884	18.74
x1 = 0.94	18.55

COC(C)(C)C [2-methoxy-2-methylpropane] + C1CCCCC1
[3]
Conditions	surface tension liquid-gas [mN/m]
x1 = 0.046	23.39
x1 = 0.1	22.97
x1 = 0.205	22.23
x1 = 0.308	21.57
x1 = 0.409	21.03
x1 = 0.51	20.58
x1 = 0.614	20.12
x1 = 0.716	19.71
x1 = 0.816	19.34
x1 = 0.901	19.05
x1 = 0.947	18.89

CC(C)=O [acetone]
Conditions	mass density [kg/m3]	refractive index	surface tension liquid-gas [mN/m]
[1]	–	1.35732	–
[2]	784.23	–	22.45

Conditions	vapor or sublimation pressure [kPa]
[2], 327.16 K	94
